{"source": "patent US11414424B2", "about": "“Cardiac sarcomere inhibitors” (Cytokinetics, Inc., priority 2018, dated 2022)"}
{"tested_on": "bovine cardiac myofibrils", "assay": "Myofibril assay: PK/LDH-coupled steady-state ATPase activity of skinned bovine cardiac myofibrils", "format": "biochemical", "conditions": "Ca2+ activating to 75% of maximal rate", "outline": "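Steady-state ATPase of detergent-skinned bovine left-ventricular myofibrils (1 mg/mL), PK/LDH-coupled NADH read at 340 nm, in PIPES/MgCl2 buffer pH 6.8 with 50 μM ATP, 0.6 mM EGTA and CaCl2 set for 50% or 75% activation. Inhibition of activity measured.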", "units": {"CDMF75 IC15": "µM"}}
{"compound": "CC(C)N1CC(=O)N(Cc2ccc(C(F)(F)F)cc2)C2(CN(C(N)=O)C2)C1=O", "note": "[Compound 68, 8-isopropyl-6,9-dioxo-5-(4-(trifluoromethyl)benzyl)-2,5,8-triazaspiro[3.5]-nonane-2-carboxamide]", "CDMF75 IC15": 9.2}
{"compound": "CC(C)N1CC(=O)N(Cc2ccc(C(F)(F)F)cc2)C2(CN(C=O)C2)C1=O", "note": "[Compound 69, 8-isopropyl-6,9-dioxo-5-(4-(trifluoromethyl)benzyl)-2,5,8-triazaspiro[3.5]-nonane-2-carbaldehyde]", "CDMF75 IC15": 15.4}
{"compound": "CNC(=O)N1CC2(C1)C(=O)N(C1CCCC1)CC(=O)N2Cc1ccc(C(F)(F)F)cc1", "note": "[Compound 70, 8-cyclopentyl-N-methyl-6,9-dioxo-5-(4-(trifluoromethyl)benzyl)-2,5,8-triazaspiro[3.5]-nonane-2-carboxamide]", "CDMF75 IC15": 9.5}
{"compound": "CC(C)N1CC(=O)N(Cc2ccc(Cl)cc2)C2(CCN(c3ccncn3)C2)C1=O", "note": "(stereo not drawn) [Compound 71, 6-(4-chlorobenzyl)-9-isopropyl-2-(pyrimidin-4-yl)-2,6,9-triazaspiro-[4.5]decane-7,10-dione]", "CDMF75 IC15": 4.8}
{"compound": "Cc1cc(N2CCC3(C2)C(=O)N(C(C)C)CC(=O)N3Cc2ccc(C(F)(F)F)cc2)ccn1", "note": "(stereo not drawn) [Compound 72, 9-isopropyl-2-(2-methylpyridin-4-yl)-6-(4-(trifluoromethyl)benzyl)-2,6,9-triazaspiro[4.5]-decane-7,10-dione]", "CDMF75 IC15": 9.0}
{"compound": "CC(C)N1CC(=O)N(Cc2ccc(C(F)(F)F)cc2)C2(CCN(c3cccnn3)C2)C1=O", "note": "(stereo not drawn) [Compound 73, 9-isopropyl-2-(pyridazin-3-yl)-6-(4-(trifluoromethyl)benzyl)-2,6,9-triazaspiro[4.5]-decane-7,10-dione]", "CDMF75 IC15": 5.7}
{"compound": "CC(C)N1CC(=O)N(Cc2ccc(Cl)cc2)C2(CCN(c3cnccn3)C2)C1=O", "note": "(stereo not drawn) [Compound 74, 6-(4-chlorobenzyl)-9-isopropyl-2-(pyrazin-2-yl)-2,6,9-triazaspiro[4.5]-decane-7,10-dione]", "CDMF75 IC15": 4.2}
{"compound": "Cc1ccc(N2CCC3(C2)C(=O)N(C(C)C)CC(=O)N3Cc2ccc(Cl)cc2)nc1", "note": "(stereo not drawn) [Compound 75, 6-(4-chlorobenzyl)-9-isopropyl-2-(5-methylpyridin-2-yl)-2,6,9-triazaspiro[4.5]-decane-7,10-dione]", "CDMF75 IC15": 1.1}
{"compound": "CC(C)N1CC(=O)N(Cc2ccc(C(F)(F)F)cc2)C2(CCN(c3cc[nH]c(=O)c3)C2)C1=O", "note": "(stereo not drawn) [Compound 76, 9-isopropyl-2-(2-oxo-1,2-dihydropyridin-4-yl)-6-(4-(trifluoromethyl)benzyl)-2,6,9-triazaspiro[4.5]decane-7,10-dione]", "CDMF75 IC15": 2.2}
{"compound": "Cc1cc(N2CCC3(C2)C(=O)N(C(C)C)CC(=O)N3Cc2ccc(C(F)(F)F)cc2)cc(C)n1", "note": "(stereo not drawn) [Compound 77, 2-(2,6-dimethylpyridin-4-yl)-9-isopropyl-6-(4-(trifluoromethyl)benzyl)-2,6,9-triazaspiro[4.5]-decane-7,10-dione]", "CDMF75 IC15": 13.0}
{"compound": "CC(C)N1CC(=O)N(Cc2ccc(Cl)cc2)C2(CCN(c3cnn(C)c3)C2)C1=O", "note": "(stereo not drawn) [Compound 78, 6-(4-chlorobenzyl)-9-isopropyl-2-(1-methyl-1H-pyrazol-4-yl)-2,6,9-triazaspiro[4.5]decane-7,10-dione]", "CDMF75 IC15": 4.1}
{"compound": "CC(C)N1CC(=O)N(Cc2ccc(Cl)cc2)C2(CCN(c3cccnn3)C2)C1=O", "note": "(stereo not drawn) [Compound 79, 6-(4-chlorobenzyl)-9-isopropyl-2-(pyridazin-3-yl)-2,6,9-triazaspiro[4.5]-decane-7,10-dione]", "CDMF75 IC15": 3.8}
{"compound": "CC(C)N1CC(=O)N(Cc2ccc(Cl)cc2)C2(CCN(c3ccn(C)c(=O)c3)C2)C1=O", "note": "(stereo not drawn) [Compound 80, 6-(4-chlorobenzyl)-9-isopropyl-2-(1-methyl-2-oxo-1,2-dihydropyridin-4-yl)-2,6,9-triazaspiro-[4.5]decane-7,10-dione]", "CDMF75 IC15": 1.7}
{"compound": "CC(C)N1CC(=O)N(Cc2ccc(Cl)cc2)C2(CCN(c3cc[nH]c(=O)c3)C2)C1=O", "note": "(stereo not drawn) [Compound 81, 6-(4-chlorobenzyl)-9-isopropyl-2-(2-oxo-1,2-dihydropyridin-4-yl)-2,6,9-triazaspiro[4.5]decane-7,10-dione]", "CDMF75 IC15": 1.4}
{"compound": "CCN1CC(=O)N(Cc2ccc(Cl)cc2)C2(CCN(c3ccccn3)C2)C1=O", "note": "(stereo not drawn) [Compound 82, 6-(4-chlorobenzyl)-9-ethyl-2-(pyridin-2-yl)-2,6,9-triazaspiro[4.5]decane-7,10-dione]", "CDMF75 IC15": 8.1}
{"compound": "O=C1CN(C2CCCC2)C(=O)C2(CCN(c3ccccn3)C2)N1Cc1ccc(Cl)cc1", "note": "(stereo not drawn) [Compound 83, 6-(4-chlorobenzyl)-9-cyclopentyl-2-(pyridin-2-yl)-2,6,9-triazaspiro[4.5]-decane-7,10-dione]", "CDMF75 IC15": 1.3}
{"compound": "CC(C)CN1CC(=O)N(Cc2ccc(Cl)cc2)C2(CCN(c3ccccn3)C2)C1=O", "note": "(stereo not drawn) [Compound 84, 6-(4-chlorobenzyl)-9-isobutyl-2-(pyridin-2-yl)-2,6,9-triazaspiro[4.5]-decane-7,10-dione]", "CDMF75 IC15": 4.0}
{"compound": "CC1(N2CC(=O)N(Cc3ccc(Cl)cc3)C3(CCN(c4ccccn4)C3)C2=O)CC1", "note": "(stereo not drawn) [Compound 85, 6-(4-chlorobenzyl)-9-(1-methylcyclopropyl)-2-(pyridin-2-yl)-2,6,9-triazaspiro[4.5]decane-7,10-dione]", "CDMF75 IC15": 14.3}
{"compound": "COCC(C)N1CC(=O)N(Cc2ccc(Cl)cc2)C2(CCN(c3ccccn3)C2)C1=O", "note": "(stereo not drawn) [Compound 86, 6-(4-chlorobenzyl)-9-(1-methoxypropan-2-yl)-2-(pyridin-2-yl)-2,6,9-triazaspiro[4.5]decane-7,10-dione]", "CDMF75 IC15": 8.6}
{"compound": "COc1cc(N2CCC3(C2)C(=O)N(C(C)C)CC(=O)N3Cc2ccc(Cl)cc2)ccn1", "note": "(stereo not drawn) [Compound 87, 6-(4-chlorobenzyl)-9-isopropyl-2-(2-methoxypyridin-4-yl)-2,6,9-triazaspiro[4.5]-decane-7,10-dione]", "CDMF75 IC15": 1.9}
{"compound": "CC(C)N1CC(=O)N(Cc2ccc(C(F)(F)F)cc2)C2(CCN(c3cc(C#N)ccn3)C2)C1=O", "note": "(stereo not drawn) [Compound 88, 2-(9-isopropyl-7,10-dioxo-6-(4-(trifluoromethyl)-benzyl)-2,6,9-triazaspiro[4.5]decan-2-yl)isonicotinonitrile]", "CDMF75 IC15": 4.0}
{"compound": "CC(C)N1CC(=O)N(Cc2ccc(C(F)(F)F)cc2)C2(CCN(c3cc(C(N)=O)ccn3)C2)C1=O", "note": "(stereo not drawn) [Compound 89, 2-(9-isopropyl-7,10-dioxo-6-(4-(trifluoromethyl)-benzyl)-2,6,9-triazaspiro[4.5]decan-2-yl)isonicotinamide]", "CDMF75 IC15": 3.3}
{"compound": "CC(C)N1CC(=O)N(Cc2ccc(Cl)c(Cl)c2)C2(CCN(c3ccc(C#N)cn3)C2)C1=O", "note": "(stereo not drawn) [Compound 90, 6-(6-(3,4-dichlorobenzyl)-9-isopropyl-7,10-dioxo-2,6,9-triazaspiro[4.5]-decan-2-yl)nicotinonitrile]", "CDMF75 IC15": 1.7}
{"compound": "CC(C)N1CC(=O)N(Cc2ccc(Cl)c(Cl)c2)C2(CCN(c3ccc(C(N)=O)cn3)C2)C1=O", "note": "(stereo not drawn) [Compound 91, 6-(6-(3,4-dichlorobenzyl)-9-isopropyl-7,10-dioxo-2,6,9-triazaspiro[4.5]decan-2-yl)nicotinamide]", "CDMF75 IC15": 1.1}
{"compound": "CC(C)N1CC(=O)N(Cc2ccc(Cl)cc2)C2(CCN(c3ccc(F)cn3)C2)C1=O", "note": "(stereo not drawn) [Compound 92, 6-(4-chlorobenzyl)-2-(5-fluoropyridin-2-yl)-9-isopropyl-2,6,9-triazaspiro[4.5]decane-7,10-dione]", "CDMF75 IC15": 1.0}
{"compound": "O=C1CN([C@@H]2CCOC2)C(=O)C2(CCN(c3ccccn3)C2)N1Cc1ccc(Cl)cc1", "note": "(stereo partly drawn) [Compound 93, 6-(4-chlorobenzyl)-2-(pyridin-2-yl)-9-((R)-tetrahydrofuran-3-yl)-2,6,9-triazaspiro-[4.5]decane-7,10-dione]", "CDMF75 IC15": 19.7}
{"compound": "O=C1CN([C@H]2CCOC2)C(=O)C2(CCN(c3ccccn3)C2)N1Cc1ccc(Cl)cc1", "note": "(stereo partly drawn) [Compound 94, 6-(4-chlorobenzyl)-2-(pyridin-2-yl)-9-((S)-tetra-hydrofuran-3-yl)-2,6,9-triazaspiro[4.5]decane-7,10-dione]", "CDMF75 IC15": 36.1}
{"compound": "CC(C)N1CC(=O)N(Cc2ccc(Cl)cc2)C2(CCN(c3cc(C#N)ccn3)C2)C1=O", "note": "(stereo not drawn) [Compound 95, 2-(6-(4-chlorobenzyl)-9-isopropyl-7,10-dioxo-2,6,9-triazaspiro[4.5]decan-2-yl)isonicotinonitrile]", "CDMF75 IC15": 5.0}
{"compound": "CC(C)N1CC(=O)N(Cc2ccc(Cl)cc2)C2(CCN(c3ccc(C#N)cn3)C2)C1=O", "note": "(stereo not drawn) [Compound 96, 6-(6-(4-chlorobenzyl)-9-isopropyl-7,10-dioxo-2,6,9-triazaspiro[4.5]decan-2-yl)nicotinonitrile]", "CDMF75 IC15": 4.5}
{"compound": "CC(C)N1CC(=O)N(Cc2ccc(Cl)cc2)C2(CCN(c3cc(C(N)=O)ccn3)C2)C1=O", "note": "(stereo not drawn) [Compound 97, 2-(6-(4-chlorobenzyl)-9-isopropyl-7,10-dioxo-2,6,9-triazaspiro[4.5]decan-2-yl)isonicotinamide]", "CDMF75 IC15": 3.1}
{"compound": "CC(C)N1CC(=O)N(Cc2ccc(Cl)cc2)C2(CCN(c3ccc(C(N)=O)cn3)C2)C1=O", "note": "(stereo not drawn) [Compound 98, 6-(6-(4-chlorobenzyl)-9-isopropyl-7,10-dioxo-2,6,9-triazaspiro[4.5]decan-2-yl)nicotinamide]", "CDMF75 IC15": 2.4}
{"compound": "CC(C)N1CC(=O)N(Cc2ccc(C(F)(F)F)cc2)C2(CCN(C(N)=O)C2)C1=O", "note": "(stereo not drawn) [Compound 107, 9-isopropyl-7,10-dioxo-6-(4-(trifluoromethyl)benzyl)-2,6,9-triazaspiro[4.5]decane-2-carboxamide]", "CDMF75 IC15": 12.7}
{"compound": "CC(C)N1CC(=O)N(Cc2ccc(C(F)(F)F)cc2)C2(CCN(C(=O)Nc3ccccc3)C2)C1=O", "note": "(stereo not drawn) [Compound 109, 9-isopropyl-7,10-dioxo-N-phenyl-6-(4-(trifluoro-methyl)benzyl)-2,6,9-triazaspiro[4.5]decane-2-carboxamide]", "CDMF75 IC15": 8.3}
